The test system of one data set is Vero. The data set is described as follows: Cytotoxicity against african green monkey Vero cells after 72 hrs by MTS assay. The note with it: Chlorocebus sabaeus, Vero, 72 h. (Formazan colour is commonly taken as a measure of viable cells.)
A further data set deals with Trypanosoma cruzi. The data set can be described thus: Antitrypanosomal activity against Trypanosoma cruzi tulahuen C4 trypomastigotes infected in african green monkey Vero cells assessed as CPRG cleavage after 120 hrs by microplate reader. Format: functional, organism-based.
Data set [1] can be described thus: Selectivity index, ratio of IC50 for african green monkey Vero cells to IC50 for Trypanosoma cruzi tulahuen C4. The note with it: Vero cells.
In data set [2] the test system is Mycobacterium tuberculosis. The data set is described as follows: Antitubercular activity against Mycobacterium tuberculosis H37Rv ATCC 27294 after 7 days by microplate alamar blue assay. Format: functional. The following applies: H37Rv ATCC 27294, 168 h. A general note: Alamar Blue is a resazurin reagent that responds to reducing activity.
Data set [3] is described as follows: Selectivity index, ratio of IC50 for african green monkey Vero cells to MIC for Mycobacterium tuberculosis H37Rv ATCC 27294 by microplate alamar blue assay. It counts as functional.
Data set [4] is described as follows: Cytotoxicity against BALB/c mouse macrophages after 48 hrs by trypan blue dye exclusion method. Format: cell-based. The following applies: Macrophage.
A further data set has as its system Leishmania amazonensis. The data set can be described thus: Antileishmanial activity against Leishmania amazonensis MHOM/BR/76/LTB-012 amastigotes infected BALB/c mouse macrophages after 48 hrs by MTT assay. It counts as functional, organism-based. The note with it: MHOM/BR/76/LTB-012, 48 h.
Data set [5] in a line: Selectivity index, ratio of IC50 for BALB/c mouse macrophages to IC50 for Leishmania amazonensis MHOM/BR/76/LTB-012.
Data set [6] is described as follows: Cytotoxicity against BALB mouse 3T3 cells. It counts as cell-based. The note with it: BALB 3T3 cells.
The test system of another data set is NCI-H460. The data set can be described thus: Cytotoxicity against human NCI-H460 cells. Format: functional.
The next data set relates to DU-145. The data set is described as follows: Cytotoxicity against human DU145 cells. It counts as functional.
The next data set relates to MCF7. The data set is described as follows: Cytotoxicity against human MCF7 cells. Format: functional.
The next data set deals with M14. The data set can be described thus: Cytotoxicity against human M14 cells. It counts as functional.
For another data set, the system named is HT-29. The data set is described as follows: Cytotoxicity against human HT-29 cells. It counts as functional.
A further data set relates to K562. The data set can be described thus: Cytotoxicity against human K562 cells. Format: functional.

pIC50: −log10 of the molar value. ≈ marks a conversion by molar mass, not a printed value.

The source of these data is ChEMBL document CHEMBL1156236, “Trypanoside, anti-tuberculosis, leishmanicidal, and cytotoxic activities of tetrahydrobenzothienopyrimidines” (Bioorg Med Chem, 2010).

One may read the pIC50 as the IC50 on a negative log10 scale, so that one unit is a factor of ten. One may read the MIC as the least concentration at which growth counts as inhibited. For orientation: GI50 means the concentration giving 50% growth inhibition. With `Fc1ccc(/C=N/Nc2ncnc3sc4c(c23)CCCC4)cc1`, the pIC50 with Vero is 4.74; in the data set on Trypanosoma cruzi, 4.74; in [4] it was 5.03; with Leishmania amazonensis it was 5.01. In addition, the selectivity ratio in data set [1] came to 1. The compound also showed a minimum inhibitory concentration (MIC) in [2] of 71.1 µM (≈ 23.2 µg/mL). In addition, the results for the “Ratio IC50” value in data set [3] and in data set [5] were 0.6 and 1, respectively. Further, the GI50 in data set [6] turned out to be 20.5 µM; in the data set with NCI-H460, 9.4 µM; in the data set on DU-145, 13.9 µM; in the data set with MCF7, 7.4 µM; in the data set on M14, 17.6 µM; with HT-29, 10.4 µM. In addition, in the data set on K562, the 50% growth inhibitory concentration (GI50) stood at 8.9 µM.

Consider `Clc1ccccc1/C=N/Nc1ncnc2sc3c(c12)CCCC3`, for which the negative-log IC50 (pIC50) in the data set on Vero was 4.84; in the data set with Trypanosoma cruzi, 4.67; in [4], 4.95; in the data set with Leishmania amazonensis, 5.66. The selectivity ratio in [1] was determined as 0.7. Besides, the MIC in data set [2] came to 124 µM (≈ 42.6 µg/mL). Also, the results for the “Ratio IC50” value in data set [3] and in data set [5] were 0.7 and 5, respectively. Besides, the 50% growth inhibitory concentration (GI50) in data set [6] is 88.1 µM; with NCI-H460 it was 62.9 µM; in the data set on DU-145, 77.8 µM; in the data set on MCF7, 22 µM; in the data set with M14 it was more than 170 µM; in the data set with HT-29 it was 56.5 µM. The GI50 in the data set with K562 is 19.8 µM.

In the case of `Brc1ccccc1/C=N/Nc1ncnc2sc3c(c12)CCCC3`, the pIC50 with Vero was 5.11; in the data set on Trypanosoma cruzi, 5.03; in data set [4], 5.13; in the data set with Leishmania amazonensis, 5.89. In addition, the selectivity ratio in [1] is 0.8. The same compound came in with an MIC in data set [2] of 24.3 µM (≈ 9.41 µg/mL). The “Ratio IC50” value is given as 0.8 in data set [3] and 5.8 in data set [5]. Further, the concentration for 50% growth inhibition (GI50) in data set [6] came out at 11.2 µM; with NCI-H460, 7.7 µM; in the data set with DU-145, 7.1 µM; in the data set with MCF7, 4.5 µM; in the data set with M14 it was 15.4 µM; in the data set with HT-29 it was 8 µM. Growth in the data set with K562 was halved (GI50) at 3 µM.

For `C(=N\Nc1ncnc2sc3c(c12)CCCC3)/c1ccc[nH]1`, the negative logarithm of the IC50 (pIC50) is 5.47 in the data set with Vero, 4.64 with Trypanosoma cruzi, 5.01 in data set [4] and 5.00 in the data set on Leishmania amazonensis. The selectivity ratio in data set [1] is 0.1. Moreover, in [2], the MIC was determined as 20.8 µM (≈ 6.19 µg/mL). Besides, the “Ratio IC50” value in data set [3] is reported as 0.6; in [5] it was 1. Moreover, the concentration for 50% growth inhibition (GI50) in [6] was found to be 2.2 µM; in the data set with NCI-H460, 1.7 µM; in the data set on DU-145, 4.6 µM; in the data set on MCF7 it was 0.4 µM; with M14, 2.5 µM; in the data set on HT-29, 3.8 µM. Besides, in the data set with K562, the GI50 amounted to 1.9 µM.

In the case of `CC(C)(C)/C=N/Nc1ncnc2sc3c(c12)CCCC3`, the pIC50 is less than 4.60 in the data set with Trypanosoma cruzi, 3.76 in data set [4] and 3.95 with Leishmania amazonensis. In [2], this compound showed a minimum inhibitory concentration (MIC) of 299 µM (≈ 86.3 µg/mL). The “Ratio IC50” value in data set [3] was found to be 0.3; in [5], 1.6. Also, the concentration for 50% growth inhibition (GI50) in data set [6] was determined as 7.3 µM; in the data set on NCI-H460, 24.5 µM; in the data set with DU-145, 25.1 µM; in the data set on MCF7, 26 µM; in the data set with M14 it was 32.7 µM; with HT-29 it was 33 µM. It took 27.5 µM to inhibit growth in the data set with K562 by half (GI50).

Regarding `Fc1ccccc1/C=N/Nc1ncnc2sc3c(c12)CCCC3`, the pIC50 with Vero was 4.74; in the data set with Trypanosoma cruzi it was 4.97; in data set [4], 4.99; in the data set with Leishmania amazonensis, 5.48. Moreover, the selectivity ratio in [1] is 1.7. The same compound came in with an MIC in [2] of more than 300 µM. Moreover, the “Ratio IC50” value in [5] came out at 3.1. The concentration for 50% growth inhibition (GI50) (in data set [6]; with NCI-H460; in the data set with DU-145; in the data set on MCF7; with M14; in the data set with HT-29) was more than 250 µM throughout. Moreover, halving of growth in the data set with K562 (GI50) required 81.2 µM.
